Here are results for six compounds from patent publication US20070027181A1, “Benzylisoquinoline derivative- or bisbenzylisoquinoline derivative-containing psychotropic agent, analgesic and/or antiphlogistic, and health food” (EDUCATION CENTER OF TRADITIONAL, priority 2004, published 2007).

Common to all, as to type: in vivo, Male ICR mice
Data set [1] concerns mice. Put plainly: locomotor activity (ultromotivity) test, evaluation of sedative action. The method, then:
(§1) In the following Examples, all extracts and drugs used were dissolved in physiological saline before use for i.p. administration and the dose was 0.1 ml of physiological saline per 10 g of mouse body weight in either case. All extracts and drugs were suspended in physiological saline containing 1% sodium carboxymethylcellulose before use for oral administration and the dose was 0.1 ml of 1% sodium carboxymethylcellulose-containing physiological saline suspension per 10 g of mouse body weight in either case. Male ICR mice (Japan SLC) having a body weight of 25 to 30 g were used in the tests below unless otherwise stated, and were fed in advance at a room temperature of 23±1° C. and a relative humidity of 55±5% in the environment of a cycle of 12-hour-light from 7 a.m. to 7 p.m. and 12-hour-dark from 7 p.m. to 7 a.m. for 3 to 5 days. The mice were allowed to have water and feed freely.
Twenty five mice were grouped into five groups each having five mice, to which 5 mg/kg of N-methylcoclaurine hydrochloride (treatment group 1-1: i.p. administration), 50 mg/kg of neferine hydrochloride (treatment group 1-2: oral administration, and treatment group 1-3: i.p. administration), 50 mg/kg of liensinine hydrochloride (treatment group 1-4: oral administration), or physiological saline (negative control group 1-1: i.p. administration) was administered. The ultromotivity of the mice was analyzed by using a locomotor activity monitoring system (NS-AS01, Neuroscience Inc.). The ultromotivity measurements were performed at an interval of 5 minutes for 60 minutes, and the ultromotivity was judged from the count at each measuring time.
Similar tests were conducted by i.p. administration of 25 mg/kg of N-norarmepavine (treatment group 1-5, n=6), 25 mg/kg of O,O-dimethylcoclaurine (treatment group 1-6, n=5), 10 mg and 25 mg/kg of armepavine (respectively, treatment group 1-7, n=6, and treatment group 1-8, n=6), 10 mg and 25 mg/kg of O-methylarmepavine (respectively, treatment group 1-9, n=6, and treatment group 1-10, n=6), and physiological saline (negative control group 1-2, n=5). The ultromotivity measurements were performed at an interval of five minutes for 60 minutes, and the ultromotivity was subjected to a significant difference test (Tukey's method) by using the counts at respective measuring times.
Tests were performed by using mice administered intraperitoneally with 25 mg/kg of neferine hydrochloride (treatment group 7-1, n=6), 25 mg/kg of liensinine hydrochloride (treatment group 7-2, n=6), and physiological saline (negative control group, n=6) as well as 5 mg/kg of diazepam (positive control group, n=6) and a rotarod equipment (Ugo Basile, Italy) and a locomotor activity monitoring system (NS-AS01, Neuroscience Inc.). The rotarod test was performed by placing a mouse on a rod having a diameter of 4 cm rotating at a speed of 8 rpm 15 minutes after drug administration and observing whether the mouse can stay on the rod without falling for three minutes. The individuals that had fallen from the rotating rod in the period of 3 minutes were judged that they are with motor coordination disorder. […] In addition, the ultromotivity measurements were performed at an interval of five minutes for 60 minutes, and the ultromotivity results were subjected to a significant difference test (Tukey's method) by using the counts at respective measuring times.

For data set [2], the system named is mice. The data set is described as follows: histamine-induced paw edema test. As to conditions: 10 mg/kg i.p. 15 minutes before histamine 10 μg; 12 minutes after histamine. The protocol:
as §1
Six mice per group were used. […] The thickness of the right hind paw was measured immediately before histamine administration and 12 minutes after histamine administration. The thickness immediately before administration was subtracted from the thickness of the paw after histamine administration, and this was adopted as a thickness of paw edema. As apparent from TABLE 18, paw edema due to histamine was suppressed by neferine. […]

For data set [3], the system named is mice. The data set is described as follows: formalin pad test. As to conditions: 10 mg/kg i.p. 15 minutes before formalin. The method, then: as §1
A formalin pad test is a method in which, when formalin is subcutaneously administered to a pad of a mouse, the mouse causes licking, and analgesic action of a test drug is determined by utilizing this. Suppression of licking in a test drug-administered group was investigated relative to a physiological saline-administered control group, and analgestic action was evaluated.
Six mice per group were used. Neferine hydrochloride was intraperitoneally administered at a dose of 25 mg/kg, 50 mg/kg or 100 mg/kg and, after fifteen minutes, 20 μl of a 0.2% by weight formalin aqueous solution was subcutaneously administered to a right hind paw pad. After formalin administration, licking was regarded as a provisional pain reaction, and a licking sustaining time in a first phase from immediately after formalin administration to five minutes after formalin administration and in a second phase from 15 minutes to 30 minutes after formalin administration was measured. Regarding the resulting measurements, a significant difference test was performed by a Dunnet multiple comparison test method.
According to the same manner as in Example 13 except that 10 mg/kg of O-methylarmepavine was intraperitoneally administered in place of neferine, a formalin pad test was performed.

The test system of data set [4] is mice. The data set is described as follows: acetic acid-induced writhing test. The method, then: as §1
An acetic acid-induced writhing test is a method wherein analgesic action of a compound is determined utilizing this. The number of this writhing is compared between a physiological saline-administered control group and a test drug-administered group, and suppression of the number of writhing by the test drug is investigated thereby assessing its analgesic action.
Seven to ten mice per group were used. Neferine hydrochloride was subcutaneously administered to mice at their back at a dose of 5 mg/kg, 10 mg/kg, 25 mg/kg, 50 mg/kg or 100 mg/kg and, after 15 minutes, a 0.6% by weight solution of acetic acid in water was intraperitoneally administered at 0.1 mL/10 g body weight. The number of writhing was counted every ten minutes for 30 minutes from immediately after acetic acid administration (0 to 10 min, 10 to 20 min, 20 to 30 min). In addition, the total number of writhing for 30 minutes from immediately after acetic acid administration was also obtained. Regarding the resulting measurements, a significant difference test was performed by a Dunnet multiple comparison test method.
According to the same manner as in acetic acid-induced writhing test-1 except that acetic acid was intraperitoneally administered 30 minutes after subcutaneous administration of neferine in the aforementioned acetic acid-induced writhing test-1, an acetic acid-induced writhing test was performed. However, the dose of neferine was only 50 mg/kg.
According to the same manner as in the acetic acid-induced writhing test-1 except that acetic acid was intraperitoneally administered 30 minutes after oral administration of neferine in the aforementioned acetic acid-induced writhing test-1, an acetic acid-induced writhing test was performed. However, five to six mice per group were used. The dose of neferine was 10 mg/kg and 50 mg/kg. Further, aspirin was used as a positive control drug. The dose of aspirin was 50 mg/kg.
According to the same manner as in acetic acid-induced writhing test-1 except that armepavine was used in place of neferine in the aforementioned acetic acid-induced writhing test-1, an acetic acid-induced writhing test was performed. However, the dose of armepavine was 5 mg/kg and 10 mg/kg.
According to the same manner as in acetic acid-induced writhing test-1 except that O-methylarmepavine was used in place of neferine in the aforementioned acetic acid-induced writhing test-1, an acetic acid-induced writhing test was performed. However, the dose of O-methylarmepavine was 5 mg/kg and 10 mg/kg.

Data set [5] concerns mice. Put plainly: rotarod test (motor coordination). Conditions: 5 mg/kg i.p., n=6, 15 minutes after administration, 8 rpm, three minutes. The method, then:
as §1
Tests were performed by using mice administered intraperitoneally with 25 mg/kg of neferine hydrochloride (treatment group 7-1, n=6), 25 mg/kg of liensinine hydrochloride (treatment group 7-2, n=6), and physiological saline (negative control group, n=6) as well as 5 mg/kg of diazepam (positive control group, n=6) and a rotarod equipment (Ugo Basile, Italy) and a locomotor activity monitoring system (NS-AS01, Neuroscience Inc.). […]

The mark [6] stands for this setting: 5 mg/kg s.c. 15 minutes before acetic acid.
Where [7] appears, read: 10 mg/kg s.c. 15 minutes before acetic acid.
Where [8] appears, read: 50 mg/kg oral 30 minutes before acetic acid.

As to `COc1cc2c(cc1O)[C@@H](Cc1ccc(O)cc1)N(C)CC2` [N-methylcoclaurine], the “sedative activity compared with neferine and liensinine” value in the data set with mice [1] (5 mg/kg i.p. versus 50 mg/kg of the bisbenzylisoquinolines) is reported as “extremely higher activity”. In addition, in the data set with mice [1] (5 mg/kg i.p.), the “Ultromotivity (count) 30 minutes” value is on record as 250 count and the “Ultromotivity (count) 60 minutes” value is 250 count.
As to `COc1ccc(C[C@@H]2c3cc(OC)c(OC)cc3CCN2C)cc1` [O-methylarmepavine], in the data set with mice [2], the “Thickness of paw edema (mm)” value is on record as 0.37 ± 0.06 mm. Further, the “Licking sustaining time (second) First phase” value with mice [3] (0 to 5 minutes) was determined as 70.9 ± 11.24 s. The “Licking sustaining time (second) Second phase” value with mice [3] (15 to 30 minutes) turned out to be 126.9 ± 18.4 s. Moreover, in the data set on mice [4] (setting [6]), the “Number of writhing 0-10 min.” value amounted to 11.6 ± 1.41, the “Number of writhing 0-30 min.” value worked out at 30.2 ± 1.90, the “Number of writhing 10-20 min.” value came to 11.2 ± 2.25 and the “Number of writhing 20-30 min.” value came out at 7.4 ± 1.52. For the same compound, in the data set on mice [4] (setting [7]), the “Number of writhing 0-10 min.” value is 5.9 ± 1.73, the “Number of writhing 0-30 min.” value is 13.3 ± 1.69, the “Number of writhing 10-20 min.” value amounted to 4.3 ± 1.19 and the “Number of writhing 20-30 min.” value was 3.1 ± 0.58.
Take `COc1cc2c(cc1OC)C(Cc1ccc(O)cc1)N(C)CC2` (centres unmarked) [armepavine]: in the data set on mice [4] (setting [6]), the “Number of writhing 0-10 min.” value is given as 19.0 ± 3.21, the “Number of writhing 0-30 min.” value is 41.7 ± 5.24, the “Number of writhing 10-20 min.” value was 14.7 ± 1.92 and the “Number of writhing 20-30 min.” value worked out at 9.4 ± 1.81. In addition, in the data set with mice [4] (setting [7]), the “Number of writhing 0-10 min.” value is 8.6 ± 1.41, the “Number of writhing 0-30 min.” value amounted to 24.6 ± 4.23, the “Number of writhing 10-20 min.” value stood at 10.7 ± 2.24 and the “Number of writhing 20-30 min.” value was 5.3 ± 1.39.
Turning to `CC(=O)Oc1ccccc1C(=O)O` [aspirin, reference compound], in the data set with mice [4] (setting [8]), the “Number of writhing 0-10 min.” value is given as 10.8 ± 3.41, the “Number of writhing 0-30 min.” value is reported as 3.34 ± 5.35, the “Number of writhing 10-20 min.” value came out at 15.2 ± 1.83 and the “Number of writhing 20-30 min.” value amounted to 7.4 ± 1.23.
As to `CN1C(=O)CN=C(c2ccccc2)c2cc(Cl)ccc21` [diazepam], the “Number of individuals fallen” value in the data set with mice [5] is recorded as 5.
As to `COc1cc2c(cc1OC)[C@@H](Cc1ccc(O)c(Oc3cc4c(cc3OC)CCN(C)[C@@H]4Cc3ccc(O)cc3)c1)N(C)CC2` [liensinine], in the data set on mice [1] (50 mg/kg oral), the “Ultromotivity (count) 30 minutes” value came to 600 count and the “Ultromotivity (count) 60 minutes” value was found to be 800 count.
